How the values were obtained:
[1] = tested on: wild-type and CAR −/− mice; assay: Liver enlargement (liver mass relative to body weight); type: in vivo, mouse; conditions: for hyperplasia or hypertrophy in the liver: CAR knockout mice; for liver mass: three days of treatment
Experimental: FIG. 3A is a bar graph showing the liver enlargement and hepatocyte proliferation by PB or TCPOBOP. Mice (8–10 weeks old) were treated with PB or TCPOBOP for 3 days, and then both liver mass and body weight were measured. The data is presented as percentage of liver mass relative to total body weight.
This hepatomegaly is thought to be a reflection of both cellular hypertrophy and mitogenesis.

[2] = tested on: wild-type and CAR −/− mice; assay: Cocaine-mediated hepatotoxicity, serum ALT; conditions: for evidence of liver damage after cocaine: CAR −/− animals; for serum ALT as acute response to cocaine: male wild-type mice pretreated three days, cocaine 30 mg/kg
Experimental: FIG. 4 is a bar graph showing the effect of PB or TCPOBOP on cocaine-mediated hepatotoxicity, measured as serum alanine aminotransferase (ALT) activity. Male mice were pretreated with PB or TCPOBOP for three days. Twenty-four hours after the last dose, one injection of cocaine was given to the animals. Blood was drawn 20 hours after cocaine treatment for determination of serum ALT activity.
Blood was drawn from the eye for determination of serum ALT activity.

[3] = tested on: wild-type and CAR knockout mice; assay: APAP toxicity after pretreatment with inducers (serum ALT, histology); type: in vivo, mouse; conditions: APAP 250 mg/kg; for hepatotoxicity, inducer plus APAP: CAR null mice; for liver histology after pretreatment and APAP: wild-type animals; for ALT levels and hepatic necrosis, inducer plus APAP: wild-type, 24 hours
Experimental: (§1) CAR (+/+) or CAR (−/−) animals pretreated with phenobarbital (PB), TCPOBOP (TC), or vehicle alone were administered a 250 mg/kg dose of APAP by intraperitoneal injection (n=5–7 per treatment group) (FIG. 11A). Serum was collected and alanine aminotransferase (ALT) levels were measured after 24 hours. Liver sections from different treatments were examined by histological staining (FIG. 11B). Liver samples from all treated animals were analyzed but only representative histology is presented. […] CAR (+/+) or CAR (−/−) animals were pretreated with PB, TCPOBOP (TC), or vehicle alone for three days (FIG. 11C). […] Liver samples treated as indicated were collected two hours after APAP and GSH levels were measured (n=5–7) (FIG. 11D).
The effect of PB and the potent CAR agonist TCPOBOP on APAP toxicity was examined in wild-type and CAR knockout mice. Both strains of mice were treated with inducers or the vehicle control, followed by 250 mg/kg APAP. For these studies, mice were kept in a pathogen-free animal facility under standard 12 hour light/12 hour dark cycle and fed standard rodent chow and water ad libitum. At least five mice between 8 and 10 weeks old were used in each treatment group. For 3-day PB (100 mg/kg) treatment, mice were injected intraperitoneally three times, one injection per day. TCPOBOP (3 mg/kg) and/or APAP were injected intraperitoneally. Phenobarbital and TCPOBOP were suspended or dissolved in corn oil, and APAP was dissolved in basic PBS (pH=11). PB and APAP were purchased from Sigma (St Louis, Mo.); TCPOBOP was a gift from Dr. Stephen Safe.
(§2) For histologic examination of the treated mice, the left lobe of the livers was removed and immediately fixed in 4% formaldehyde-PBS solution, embedded in paraffin, sectioned at 5 μm, and stained with hematoxylin and eosin. Samples were examined under a light microscope. For RNA studies, total RNA was extracted using TRIzol Reagent (Invitrogen Life Technologies, Carlsbad, Calif.) according to the manufacture's instruction. Equivalent amount of RNA from 3–5 mice were pooled and 10 μg of each sample was subjected to northern blot analysis. […] Preparation of probes for CYP2B10 and CYP3A11 were described as previously (Wei et al., Nature 407:920–923, 2000 and Zelko et al., Mol Cell Biol 21:2838–2846, 2001). PCR primers used were: CYP1A2: 5′-[…]-3′ (SEQ ID NO: 19) and 5′-[…]-3′ (SEQ ID NO: 20), CYP2E1: 5′-[…]-3′ (SEQ ID NO: 21) and 5′-[…]-3′ (SEQ ID NO: 22), GSTPi: 5′-[…]-3′ (SEQ ID NO: 23) and 5′-[…]-3′ (SEQ ID NO: 24). Hepatic non-protein thiol was measured as an indication of hepatic GSH content. Mice were sacrificed two hours after intraperitoneal injection with APAP. Livers were removed and immediately homogenized in four volumes of 5% trichloroacetic acid and then centrifuged at 1,600×g for 15 minutes. Supernatant (0.5 ml) was mixed with 1.5 ml 0.1 mM Ellman's reagent [5,5′-dithio-bis(2-nitrobenzoic acid)] (Sigma, St Louis, Mo.) and allowed to stand at room temperature for 15 minutes. Absorbance was read at 412 nm using GSH solutions as quantitative standards.

hepatic GSH = assay: Hepatic GSH content (non-protein thiol); type: in vivo, mouse; conditions: for hepatic GSH levels versus vehicle CAR (+/+) and pretreated CAR (−/−) animals: pretreated wild-type animals, two hours after APAP; for decrease in hepatic GSH: pretreated wild-type mice, two hours after APAP 250 mg/kg
Experimental: as §1
FIG. 15A is a picture of the histological staining of liver sections after two hours of 500 mg/kg APAP treatment. Liver sections from animals injected with 500 mg/kg APAP for 0 or 2 hours were stained with hematoxylin and eosin. Arrows indicate initial stages of necrosis surrounding central veins. The same liver samples were collected and GSH levels were measured at 0 and 2 hours as indicated. FIG. 15B is a graph of these GSH levels.
as §2

murine CAR [4] = target: T1, murine CAR (Mus musculus, UniProt O35627); conditions: mice expressing only murine CAR (heterozygous, no transgene), 24 hours
T1 sequence (O35627 1-358): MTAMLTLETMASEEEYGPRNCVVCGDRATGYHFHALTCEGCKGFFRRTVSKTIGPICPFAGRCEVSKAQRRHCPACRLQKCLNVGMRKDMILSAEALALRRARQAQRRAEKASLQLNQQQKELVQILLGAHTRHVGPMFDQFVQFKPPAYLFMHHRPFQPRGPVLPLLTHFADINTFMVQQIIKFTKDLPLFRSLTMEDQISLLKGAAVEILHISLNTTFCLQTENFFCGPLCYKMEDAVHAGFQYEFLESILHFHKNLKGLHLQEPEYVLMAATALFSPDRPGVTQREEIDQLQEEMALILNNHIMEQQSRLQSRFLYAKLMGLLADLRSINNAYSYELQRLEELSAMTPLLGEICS
Experimental: (§3) Total RNA was prepared from the livers of the individual mice, and CYP2B10 mRNA expression was assessed by Northern blotting.
(§4) Mice heterozygous for the murine CAR gene mutation and lacking the human CAR transgene express only murine CAR. […] Mice homozygous for the murine CAR gene mutation and carrying the human CAR transgene express only human CAR in the liver.

murine CAR [5] = conditions: no functional CAR (homozygous mutation, no transgene), 24 hours
Experimental: as §3, §4

CYP3A11 = assay: Northern blot of CYP3A11 mRNA in liver; conditions: for induction of CYP311: CAR −/− mice; for induction of murine CYP3A11 mRNA: wild-type mice
Experimental: (§5) At least three mice between about 8–10 weeks old were used for each treatment. Mice were pretreated by intraperitoneal injection with corn oil, PB (100 mg/kg, Sigma), or TCBOPOP (3 mg/kg) for the indicated time. For a three day PB treatment, mice were injected intraperitoneally three times with PB, at one injection per day.

CYP2B10 [6] = assay: In situ hybridization of CYP2B10 in small intestine; conditions: for CYP2B10 expression in the small intestine: 3 days treatment; for number of grains per cell, with or without treatment: CAR −/− animals; for number of grains per cell, with or without treatment / number of grains per cell, treated versus untreated: small intestine
CYP2B10 [7] = assay: Northern blot of CYP2B10 mRNA in liver of wild-type and CAR knockout mice
Experimental: as §5
Approximately 20 μg of total RNA from individual mouse livers was subjected to Northern blot analysis (FIG. 1C). A mouse CAR cDNA probe was used to reveal the absence of CAR transcripts in the CAR null mice. Probes for CYP2B10 were prepared by RT-PCR with mouse liver total RNA using Superscript One-step RT-PCR System (Life Technologies).

Structure (SMILES) | hyperplasia or hypertrophy in the liver [1] | liver mass ([1]; CAR −/− mice) | liver mass ([1]; wild-type mice) | evidence of liver damage after cocaine [2] | serum ALT as acute response to cocaine [2] | hepatotoxicity, inducer plus APAP [3] | liver histology after pretreatment and APAP [3] | ALT levels and hepatic necrosis, inducer plus APAP [3] | hepatic GSH levels versus vehicle CAR (+/+) and pretreated CAR (−/−) animals (hepatic GSH) | decrease in hepatic GSH (hepatic GSH) | induction of CYP2B10 mRNA (murine CAR [4]) | induction of CYP2B10 mRNA (murine CAR [5]) | induction of CYP311 (CYP3A11) | induction of murine CYP3A11 mRNA (CYP3A11) | CYP2B10 expression in the small intestine (CYP2B10 [6]; CAR knockout mice) | number of grains per cell, with or without treatment (CYP2B10 [6]) | CYP2B10 expression in the small intestine (CYP2B10 [6]; wild-type mice) | number of grains per cell, treated versus untreated (CYP2B10 [6]; wild-type mice) | induction of expression of CYP2B10 mRNA (CYP2B10 [7]; CAR knockout animals) | induction of expression of CYP2B10 mRNA (CYP2B10 [7]; wild-type male or female mice)
CCC1(c2ccccc2)C(=O)NC(=O)NC1=O [PB, phenobarbital] | not detected | did not show any evidence of increased liver mass | increase in liver mass | not observed | significant increase | no such hepatotoxicity | extensive hepatic centrilobular necrosis | strongly elevated ALT levels and hepatic necrosis | significantly different | approximately 50% | induction of CYP2B10 mRNA | no response | negligible level of induction | substantial induction | not detected | not significantly different | induced CYP2B10 expression | approximately two-fold higher | absent | robust induction
Clc1cnc(Oc2ccc(Oc3ncc(Cl)cc3Cl)cc2)c(Cl)c1 [TCPOBOP, 1,4-bis[2-(3,5-dichloropyridyloxy)]benzene] | not detected | did not show any evidence of increased liver mass | increase in liver mass | not observed | significant increase | no such hepatotoxicity | extensive hepatic centrilobular necrosis | strongly elevated ALT levels and hepatic necrosis | significantly different | approximately 50% | induction of CYP2B10 mRNA | no response | negligible level of induction | substantial induction | not detected | not significantly different | induced CYP2B10 expression | approximately two-fold higher | absent | robust induction

— patent US7186879B2, “Screening systems and methods for identifying modulators of xenobiotic metabolism” (Baylor College of Medicine, priority 2001, dated 2007)
